Reference: patent publication US7982094B2, “Gene encoding lignan methylation enzyme” (Sunitory Holdings Limited, priority 2006, dated 2011)

Key:
[1] = test system: SrOMT1; test: Assay for COMT activity of SrOMT1 on caffeic acid; format: biochemical, Sesamum radiatum; details: 0.4 mg/ml caffeic acid, 10 mM SAM, 30° C. for an hour, HPLC and LC-MS; product ferulic acid
Description: (§1) The methyltransferase activity of SiOMT1 and SrOMT1 expressed in EXAMPLES 5 and 7 on caffeic acid was studied. In a reaction tube, 10 μl of 0.4 mg/ml caffeic acid, 200 μl of the crude enzyme solution of SiOMT expressed in Escherichia coli and 10 μl of 10 mM SAM were mixed, and the mixture was reacted at 30° C. for an hour.

[2] = test system: SiOMT1; test: Assay for COMT activity of SiOMT1 on caffeic acid; format: biochemical, Sesamum indicum; details: 0.4 mg/ml caffeic acid, 10 mM SAM, 30° C. for an hour, HPLC and LC-MS; product ferulic acid
Description: as §1

[3] = test system: SiOMT2; test: Lignan methylation activity assay of recombinant SiOMT2 (crude enzyme from E. coli, SAM, HPLC of products); format: biochemical, Sesamum indicum; details: substrate solution 1 mg/ml, 10 mM SAM, 30° C. for 2 hours, HPLC at 280 nm
Description: (§2) Sesame lignan used as a substrate for the enzyme reaction was dissolved in a small quantity of DMSO and then in 70% ethanol to prepare the substrate solution (1 mg/ml). Sesame lignan can be produced, for example, by extracting and purifying from sesame in accordance with publicly known methods (J. Bioscience, Biotechnology and Biochemistry, 67: 1693 (1993)). After 10 μl of the substrate solution, 200 μl of the aforesaid crude enzyme solution of SiOMT expressed in Escherichia coli and 10 μl of 10 mM S-adenosyl-L-methionine (SAM) were mixed in a reaction tube, the mixture was reacted at 30° C. for 2 hours.
The enzyme reaction was terminated by adding 100% acetonitrile (250 μl) containing 0.1% trifluoroacetic acid (TFA) to the reaction tube. […] The resulting supernatant was washed through a filter (pore size of […], 4 mm Millex-LH, Millipore) and then analyzed using high performance liquid chromatography (hereinafter HPLC). […]
Liquid chromatography (Lc-2010c, Shimadzu Corporation) was performed using a C-30 column (Nomura Chemical, C30-UG-5, […]). […] Absorption was monitored at 280 nm to detect the compounds contained in a sample. The spectra between 190 nm and 400 nm for each peak of the compounds were measured using SPD-10AV (Shimadzu Corporation) to detect substances having two absorption maxima (230 nm and 280 nm) characteristic of lignans. […]

[4] = test system: SrOMT1; test: Lignan methylation activity assay of recombinant SrOMT1 (crude enzyme from E. coli, SAM, HPLC of products); format: biochemical, Sesamum radiatum; details: as in EXAMPLE 6: 10 mM SAM, 30° C. for 2 hours
[5] = test system: SiOMT1; test: Lignan methylation activity assay of recombinant SiOMT1 (crude enzyme from E. coli, SAM, HPLC/LC-MS of products); format: biochemical, Sesamum indicum; details: substrate solution 1 mg/ml, 10 mM SAM, 30° C. for 2 hours, HPLC at 280 nm
Description: as §2
The enzyme reaction was terminated by adding 100% acetonitrile (250 μl) containing 0.1% trifluoroacetic acid (TFA) to the reaction tube. The reaction tube was vigorously agitated with a vortex mixer, followed by centrifugation at 15,000 rpm at 4° C. for 5 minutes. The resulting supernatant was washed through a filter (pore size of […], 4 mm Millex-LH, Millipore) and then analyzed using high performance liquid chromatography (hereinafter HPLC). The conditions for the analysis of lignans and methylated lignans are as follows.
Liquid chromatography (Lc-2010c, Shimadzu Corporation) was performed using a C-30 column (Nomura Chemical, C30-UG-5, […]). […] Absorption was monitored at 280 nm to detect the compounds contained in a sample. The spectra between 190 nm and 400 nm for each peak of the compounds were measured using SPD-10AV (Shimadzu Corporation) to detect substances having two absorption maxima (230 nm and 280 nm) characteristic of lignans. Under the conditions, authentic pinoresinol is detected at about 11.8 minutes, authentic piperitol at about 15.5 minutes and authentic sesaminol at about 16.8 minutes.
Next, the molecular weight of the novel lignan produced with SiOMT1 was determined by the LC-MS analysis (liquid chromatography (LC): Waters 2795 (Waters Inc.), mass spectrograph: QUATRO micro (MICROMASS, Inc.)). […]
Under the conditions, peak A is detected at about 8.3 minutes and peak B at about 11.3 minutes (FIGS. 3-5). […]

methyltransferase (COMT) activity of SrOMT1 on caffeic acid [1]	methyltransferase (COMT) activity of SiOMT1 on caffeic acid [2]	Molecule	methylation of the substrate by SiOMT2 (lignan methylation activity) [3]	methylation of the substrate by SrOMT1 (lignan methylation activity) [4]	methylation of the substrate by SiOMT1 (lignan methylation activity) [5]
had the COMT activity	had the COMT activity	O=C(O)/C=C/c1ccc(O)c(O)c1 [caffeic acid]			
		pinoresinol	any new product was not detected	exhibited the methylation activity	having the monomethylation activity
		Oc1cc2c(cc1[C@H]1OC[C@H]3[C@@H]1CO[C@@H]3c1ccc3c(c1)OCO3)OCO2 [sesaminol]			did not show any methylation activity
		COc1cc([C@@H]2OC[C@@H]3[C@H]2CO[C@H]3c2ccc3c(c2)OCO3)ccc1O [piperitol]	any new product was not detected	exhibited the methylation activity	having the monomethylation activity
